The test system of one assay is c-Raf1 kinase. Put plainly: Inhibition of the TNFα-dependent activation of c-Raf1 kinase (immunocomplex test with MEK and γ-32P-ATP). Particulars: HeLa cells incubated 2 h with 2 μM polypeptide, stimulated 15 min with TNFα; FIG. 2. The class given is cell-based. The text has this:
The detection of cell permeability mediated by CPP is shown by inhibition of the TNFα-dependent activation of c-Raf1 kinase. The activation of the c-Raf1 kinase is based on the interaction between the TNF receptor I (TNR-RI) and the adapter molecule Grb2. For this purpose, the SH3 domain of Grb2 interacts with a PLAP motive from the cytoplasmic domain of TNF-RI.
CPP is provided in the form of a fusion polypeptide. In this fusion polypeptide referred to as CPP-PLAP CPP, the amino acid sequence of FIG. 1 is present as N-terminus partner and a PLAP motive from the cytoplasmic domain of TNF-RI is present as C-terminus partner. A fusion polypeptide referred to as CPP-KLAP is also provided, which has a mutated PLAP motive.
HeLa cells are incubated for 2 h with 2 μM CPP-PLAP or CPP-KLAP (control) and stimulated for 15 min with 100 μ/ml TNFα. The activation of c-Raf1 kinase is determined by an immunocomplex test using MEK (Santa Cruz, Biotech) and y^32p-ATP as substrate (cf. FIG. 2).

The next assay has as its system 293 cells. Nature of the assay: Cell permeability: detection of the protein in the cytosolic fraction of 293 cells by Western blot. The class given is cell-based. Particulars: 1 μM in medium, Western blot anti-hexa-His and anti-eGFP. The procedure: Detection of the cell permeability mediated by DHBV (duck hepatitis B virus)-CPP was made as follows: According to standard methods a fusion protein consisting of a hexa-His-Tag (6H), DHBV-CPP and eGFP (enhanced green fluorescent protein) was prepared in analogy to Example 1 in an E. coli expression system. The pQE vector system of the Quiagen company was used. This protein (DHBV42-53eGFP) was isolated. wt6HeGFP (fusion protein of 6 His and eGFP) was used for control experiments. Then, 293 cells were incubated in the presence of these proteins for 10 and 20 minutes. The proteins were added to the medium at a concentration of 1 μM. After 10 or 20 minutes, the cells were lyzed and the cytosolic fraction of the cells was isolated by ultracentrifugation.
The presence of DHBV42-53 eGFP in the cytosol fraction was detected by means of Western blot analysis using a hexa-His-tag-specific antibody (FIG. 6, lanes 1-4) (anti-hexa-His6 of Qiagen company) or an eGFP-specific antibody (anti-eGFP of Clontech company) (FIG. 6, lanes 5-8). A peroxidase-conjugated secondary antibody (anti-mouse HRP, anti-rabbit-HRP of Amersham company) was used for the detection.

Where no end group is shown, it is not given here.

Take “CPP-PLAP: fusion polypeptide: amino acid sequence of FIG. 1 as N-terminus partner, PLAP motive from cytoplasmic domain of TNF-RI as C-terminus partner (PLSSIFSRIGDPTTTKPLAPNPSF)”: the “inhibition of the TNFα-dependent activation of c-Raf1 kinase” value in the assay on c-Raf1 kinase is reported as “fully inhibits”.

In the case of “DHBV42-53-eGFP: fusion protein consisting of a hexa-His-Tag (6H), DHBV-CPP and eGFP (enhanced green fluorescent protein) (TIDHVLDHVQTM; not fully specified (C-terminus); also: fusion with hexa-His tag and eGFP, not in the chain)”, the “internalization of the protein into the cell (cytosol)” value with 293 cells (after 10 min) and in the assay with 293 cells (after 20 minutes) was “can be observed” each time.

These data come from US7262267B1, “Polypeptide mediating cell permeability” (Island Pharmacueticals, Ltd., priority 1998, dated 2007).
